The target of the first assay is recombinant human NUDT5 (Homo sapiens, UniProt Q9UKK9). The assay is described as follows: NUDT5 inhibitor activity by malachite green reporter assay. Conditions: Table 3; 6 nM NUDT5, 50 μM ADP-Ribose, 15 minutes at room temperature. In kind it is biochemical. As to the method:
NUDT5 inhibitors were evaluated using a coupled enzymatic assay with detection of inorganic phosphate (Pi) using the malachite green assay. Following enzymatic hydrolysis of ADP-Ribose (Sigma-Aldrich A0572) by NUDT5, to yield AMP and ribose-5-phosphate, the latter product is continuously processed by a significant excess of alkaline phosphatase (Sigma-Aldrich, P0114). Formation of Pi is quantified based on the green complex (that absorbs at 630 nm) formed between malachite green and molybdate according to published procedure (Baykov, A. A., Evtushenko, O. A. and Avaeva, S. M., Anal Biochem, 171, 266-270 (1988)). Assay buffer consisted of 10 mM Tris-acetate at pH 8.0, 40 mM sodium chloride, 10 mM magnesium acetate, 0.005% Tween-20 and 1 mM dithiothreitol (DTT). The final conditions consisted of 6 nM recombinant human NUDT5, 50 μM ADP-Ribose and 10 U/ml of calf intestine alkaline phosphatase. The plates with compounds, enzymes and substrate were incubated at room temperature for 15 minutes, after which the reaction was terminated and the signal developed by the addition of the malachite green reagent using a MultiDrop (Thermo Scientific). Following vigorous shaking on plate shakers for a minimum of eight minutes the absorbance was read in a microplate reader (HidexSense) using a filter at 630 nm and a read time of 0.1 s per well. Inhibitors were used in dilutions from 100 μM to 1.7 nM in 3-fold dilution steps. Experiments were run in duplicate and confirmed in two independent experiments. IC50 values were determined by curve fitting using ExcelFit.
With `COC(=O)C1CCN(c2nc3c(c(=O)n(C)c(=O)n3C)n2Cc2nnc(-c3ccc(Cl)c(Cl)c3)o2)CC1` [Example 39, methyl 1-(7-{[5-(3,4-dichlorophenyl)-1,3,4-oxadiazol-2-yl]methyl}-1,3-dimethyl-2,6-dioxo-2,3,6,7-tetrahydro-1H-purin-8-yl)piperidine-4-carboxylate], the IC50 (commonly the concentration at which inhibition is half-maximal) worked out at 32.7 nM.

Consider `Cn1c(=O)c2c(nc(N3CCC(O)C3)n2Cc2nnc(-c3ccc(Cl)c(Cl)c3)o2)n(C)c1=O` (centres unmarked) [Example 34, 7-{[5-(3,4-dichlorophenyl)-1,3,4-oxadiazol-2-yl]methyl}-8-(3-hydroxypyrrolidin-1-yl)-1,3-dimethyl-2,3,6,7-tetrahydro-1H-purine-2,6-dione], for which the 50% inhibitory concentration (IC50) came out at 24.7 nM.

Regarding `CCCc1nc2c(c(=O)n(C)c(=O)n2C)n1Cc1nnc(-c2ccc(Cl)c(Cl)c2)o1` [Example 61, 7-{[5-(3,4-dichlorophenyl)-1,3,4-oxadiazol-2-yl]methyl}-1,3-dimethyl-8-propyl-2,3,6,7-tetrahydro-1H-purine-2,6-dione], the IC50 was found to be 246 nM.

The same assay, now with this note: Table 4; 6 nM NUDT5, 50 μM ADP-Ribose, 15 minutes at room temperature.
On to `Cn1c(=O)c2c(nc(N3CCNCC3)n2Cc2coc(-c3ccc(Cl)c(Cl)c3)n2)n(C)c1=O` [Example 72, 7-{[2-(3,4-dichlorophenyl)-1,3-oxazol-4-yl]methyl}-1,3-dimethyl-8-(piperazin-1-yl)-2,3,6,7-tetrahydro-1H-purine-2,6-dione], for which the IC50 stood at 21 nM.

In the case of `COc1cc(-c2nnc(Cn3c(N4CCC(CO)CC4)nc4c3c(=O)n(C)c(=O)n4C)o2)ccc1C` [Example 130, 8-[4-(hydroxymethyl)piperidin-1-yl]-7-{[5-(3-methoxy-4-methylphenyl)-1,3,4-oxadiazol-2-yl]methyl}-1,3-dimethyl-2,3,6,7-tetrahydro-1H-purine-2,6-dione], the IC50 worked out at 205 nM.

On to `COc1cc(-c2nnc(Cn3c(N4CCC(N(C)C)CC4)nc4c3c(=O)n(C)c(=O)n4C)o2)ccc1C` [Example 126, 8-[4-(dimethylamino)piperidin-1-yl]-7-{[5-(3-methoxy-4-methylphenyl)-1,3,4-oxadiazol-2-yl]methyl}-1,3-dimethyl-2,3,6,7-tetrahydro-1H-purine-2,6-dione], for which the IC50 amounted to 39.1 nM.

Regarding `COc1cc(-c2nnc(Cn3c(N4CCNC(C(F)(F)F)C4)nc4c3c(=O)n(C)c(=O)n4C)o2)ccc1C` (centres unmarked) [Example 129, 7-{[5-(3-methoxy-4-methylphenyl)-1,3,4-oxadiazol-2-yl]methyl}-1,3-dimethyl-8-[3-(trifluoromethyl)piperazin-1-yl]-2,3,6,7-tetrahydro-1H-purine-2,6-dione], the IC50 came out at 911 nM.

Consider `Cn1c(=O)c2c(nc(Cl)n2Cc2nnc(-c3cccc(F)c3)o2)n(C)c1=O` [Example 91, 8-chloro-7-{[5-(3-fluorophenyl)-1,3,4-oxadiazol-2-yl]methyl}-1,3-dimethyl-2,3,6,7-tetrahydro-1H-purine-2,6-dione], for which the IC50 is 2150 nM.

As for `Cn1c(=O)c2c(nc(Cl)n2Cc2nnc(-c3ccccc3)o2)n(C)c1=O` [Example 88, 8-chloro-1,3-dimethyl-7-[(5-phenyl-1,3,4-oxadiazol-2-yl)methyl]-2,3,6,7-tetrahydro-1H-purine-2,6-dione], the IC50 came to 3590 nM.

In the case of `COc1cc(-c2nnc(Cn3c(N4CCCNCC4)nc4c3c(=O)n(C)c(=O)n4C)o2)ccc1C` [Example 131, 8-(1,4-diazepan-1-yl)-7-{[5-(3-methoxy-4-methylphenyl)-1,3,4-oxadiazol-2-yl]methyl}-1,3-dimethyl-2,3,6,7-tetrahydro-1H-purine-2,6-dione], the IC50 was found to be 60.7 nM.

As for `Cn1c(=O)c2c(nc(Cl)n2Cc2nnc(-c3ccc([N+](=O)[O-])cc3)o2)n(C)c1=O` [Example 96, 8-chloro-1,3-dimethyl-7-{[5-(4-nitrophenyl)-1,3,4-oxadiazol-2-yl]methyl}-2,3,6,7-tetrahydro-1H-purine-2,6-dione], the concentration for half-maximal inhibition (IC50) is 1510 nM.
